Values quoted from earlier work as cited in patent US20030195186A1, “Methods of treating medication-, substance-, disease-, and other medical condition-related sexual dysfunction” (priority 2002, published 2003).

Details: intrathecal; spinal-cord injured male patients; case reports

CN(C)C(=O)Oc1cccc([N+](C)(C)C)c1 [neostigmine]
assisting patients with anejaculation to obtain ejaculation: being able to obtain ejaculation
